This note sets out measurements from patent US20240343704A1, “HALO-SUBSTITUTED AMINO PYRIDINE COMPOUNDS AS INHIBITORS OF THE HAEMATOPOIETIC PROGENITOR KINASE 1 (HPK1)” (priority 2021, published 2024).

SMILES strings stand for the structures.

The test concerns the target T1, Recombinant (1-346) HPK1 (h) (Homo sapiens, UniProt Q92918).
T1 construct: Recombinant (1-346) HPK1 (h) is incubated with 8 mM MOPS pH 7.0
T1 sequence (Q92918 1-346): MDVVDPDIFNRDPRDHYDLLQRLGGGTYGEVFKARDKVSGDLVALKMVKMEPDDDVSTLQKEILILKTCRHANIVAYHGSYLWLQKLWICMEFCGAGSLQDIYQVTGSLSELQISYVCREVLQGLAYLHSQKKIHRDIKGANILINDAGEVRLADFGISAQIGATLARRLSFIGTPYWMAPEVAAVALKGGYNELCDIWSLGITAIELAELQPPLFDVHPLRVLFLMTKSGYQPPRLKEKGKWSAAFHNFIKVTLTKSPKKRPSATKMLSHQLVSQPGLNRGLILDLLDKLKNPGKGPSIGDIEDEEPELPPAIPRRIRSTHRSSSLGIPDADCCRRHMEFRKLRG
Nature of the test: HPK1 Human STE Kinase Enzymatic Radiometric Assay. The conditions noted are these: read-out: HPK1 IC50 nM Range*. The class given is biochemical. Here is the method: A stock solution of 10 mM of test compound is prepared in DMSO. The compound plate was prepared by 3-fold and 9-point serial dilutions. […] The reaction is initiated by The addition of the Mg/ATP mix. After incubation for 40 minutes at RT, the reaction is stopped by the addition of phosphoric acid to a concentration of 0.5%.
One may read the IC50 as the concentration at which inhibition is half-maximal. Turning to `COc1ccc(-c2cc(-c3ccc4c(c3)CCNC4=O)c(N)nc2F)cc1CN1CCC(OC)CC1` [I-518, 6-(2-amino-6-fluoro-5-(4-methoxy-3-((4-methoxypiperidin-1-yl)methyl)phenyl)pyridin-3-yl)-3,4-dihydroisoquinolin-1(2H)-one], the half-maximal inhibitory concentration (IC50) lay within 11 to 100 nM. As for `COc1ccc(-c2cc(-c3cc4c(cc3F)C(=O)NCC4)c(N)nc2F)cc1CN1CCC(OC)CC1` [I-519, 6-(2-amino-6-fluoro-5-(4-methoxy-3-((4-methoxypiperidin-1-yl)methyl)phenyl)pyridin-3-yl)-7-fluoro-3,4-dihydroisoquinolin-1(2H)-one], the IC50 is 11 to 100 nM. Next, `Nc1nc(F)c(-c2ccc([C@]34C[C@H]3CN(C3CCC3)C4)cc2)cc1-c1ccc2c(=O)[nH]cc(F)c2c1` [I-520, 6-(2-amino-5-(4-((1S,5R)-3-cyclobutyl-3-azabicyclo[3.1.0]hexan-1-yl)phenyl)-6-fluoropyridin-3-yl)-4-fluoroisoquinolin-1(2H)-one]: 0.1 to 10 nM; `Cc1[nH]c(=O)c2ccc(-c3cc(-c4ccc(C5CCOCC5)c(CN(C)C)c4)c(F)nc3N)cc2c1F` [I-521, 6-(2-amino-5-(3-((dimethylamino)methyl)-4-(tetrahydro-2H-pyran-4-yl)phenyl)-6-fluoropyridin-3-yl)-4-fluoro-3-methylisoquinolin-1(2H)-one]: 11 to 100 nM; `COC1CN(Cc2cc(-c3cc(-c4ccc5c(c4)CCNC5=O)c(N)nc3F)ccc2N2CCOCC2)C1` [I-522, 6-(2-amino-6-fluoro-5-(3-((3-methoxyazetidin-1-yl)methyl)-4-morpholinophenyl)pyridin-3-yl)-3,4-dihydroisoquinolin-1(2H)-one]: 11 to 100 nM. Next, `COC1CN(Cc2cc(-c3cc(-c4cc5c(cc4F)C(=O)NCC5)c(N)nc3F)ccc2N2CCOCC2)C1` [I-523, 6-(2-amino-6-fluoro-5-(3-((3-methoxyazetidin-1-yl)methyl)-4-morpholinophenyl)pyridin-3-yl)-7-fluoro-3,4-dihydroisoquinolin-1(2H)-one]: 11 to 100 nM. Next, `CN(C)Cc1cc(-c2cc(-c3ccc4c(c3)CCNC4=O)c(N)nc2F)ccc1OCCCC(F)F` [I-524, 6-(2-amino-5-(4-(4,4-difluorobutoxy)-3-((dimethylamino)methyl)phenyl)-6-uoropyridin-3-yl)-3,4-dihydroisoquinolin-1(2H)-one]: 0.1 to 10 nM.

Take `CN(C)Cc1cc(-c2cc(-c3cc4c(cc3F)C(=O)NCC4)c(N)nc2F)ccc1OCCCC(F)F` [I-525, 6-(2-amino-5-(4-(4,4-difluorobutoxy)-3-((dimethylamino)methyl)phenyl)-6-fluoropyridin-3-yl)-7-fluoro-3,4-dihydroisoquinolin-1(2H)-one]: the IC50 was in the range of 11 to 100 nM. For the molecule `COC1CCN(Cc2cc(-c3cc(-c4ccc5c(c4)CCNC5=O)c(N)nc3F)ccc2OCCCC(F)F)CC1` [I-526, 6-(2-amino-5-(4-(4,4-difluorobutoxy)-3-((4-methoxypiperidin-1-yl)methyl)phenyl)-6-fluoropyridin-3-yl)-3,4-dihydroisoquinolin-1(2H)-one], the IC50 lay within 11 to 100 nM. Then `COC1CCN(Cc2cc(-c3cc(-c4cc5c(cc4F)C(=O)NCC5)c(N)nc3F)ccc2OCCCC(F)F)CC1` [I-527, 6-(2-amino-5-(4-(4,4-difluorobutoxy)-3-((4-methoxypiperidin-1-yl)methyl)phenyl)-6-fluoropyridin-3-yl)-7-fluoro-3,4-dihydroisoquinolin-1(2H)-one], with 11 to 100 nM; and `Nc1nc(F)c(-c2ccc(C3=CCOCC3)cc2CO)cc1-c1cc2c(cc1F)C(=O)NCC2` [I-528, 6-(2-amino-5-(4-(3,6-dihydro-2H-pyran-4-yl)-2-(hydroxymethyl)phenyl)-6-fluoropyridin-3-yl)-7-fluoro-3,4-dihydroisoquinolin-1(2H)-one], with 101 to 1000 nM; and `Cc1[nH]c(=O)c2c(F)cc(-c3cc(-c4ccc(N5CCN(CC6CC6)CC5)cc4)c(F)nc3N)cc2c1F` [I-529, 6-(2-amino-5-(4-(4-(cyclopropylmethyl)piperazin-1-yl)phenyl)-6-fluoropyridin-3-yl)-4,8-difluoro-3-methylisoquinolin-1(2H)-one], with 0.1 to 10 nM. `CN(C)Cc1cc(-c2cc(-c3ccc4c(c3)CCNC4=O)c(N)nc2F)ccc1OC1CCOCC1` [I-530, 6-(2-amino-5-(3-((dimethylamino)methyl)-4-((tetrahydro-2H-pyran-4-yl)oxy)phenyl)-6-fluoropyridin-3-yl)-3,4-dihydroisoquinolin-1(2H)-one]: the IC50 lay within 11 to 100 nM. Next, `CN(C)Cc1cc(-c2cc(-c3cc4c(cc3F)C(=O)NCC4)c(N)nc2F)ccc1OC1CCOCC1` [I-531, 6-(2-amino-5-(3-((dimethylamino)methyl)-4-((tetrahydro-2H-pyran-4-yl)oxy)phenyl)-6-fluoropyridin-3-yl)-7-fluoro-3,4-dihydroisoquinolin-1(2H)-one]: 11 to 100 nM. Consider `CN(C)Cc1cc(-c2cc(-c3ccc4c(c3)CCNC4=O)c(N)nc2F)ccc1OCC1CCOCC1` [I-532, 6-(2-amino-5-(3-((dimethylamino)methyl)-4-((tetrahydro-2H-pyran-4-yl)methoxy)phenyl)-6-fluoropyridin-3-yl)-3,4-dihydroisoquinolin-1(2H)-one], for which the IC50 was 11 to 100 nM. For `CN(C)Cc1cc(-c2cc(-c3cc4c(cc3F)C(=O)NCC4)c(N)nc2F)ccc1OCC1CCOCC1` [I-533, 6-(2-amino-5-(3-((dimethylamino)methyl)-4-((tetrahydro-2H-pyran-4-yl)methoxy)phenyl)-6-fluoropyridin-3-yl)-7-fluoro-3,4-dihydroisoquinolin-1(2H)-one], the IC50 is 0.1 to 10 nM. Then `Cc1[nH]c(=O)c2c(F)cc(-c3cc(-c4ccc(N5CCOCC5)c(CN(C)C)c4)c(F)nc3N)cc2c1F` [I-534, 6-(2-amino-5-(3-((dimethylamino)methyl)-4-morpholinophenyl)-6-fluoropyridin-3-yl)-4,8-difluoro-3-methylisoquinolin-1(2H)-one], with 11 to 100 nM; and `Cc1[nH]c(=O)c2c(F)cc(-c3cc(-c4ccc(C5CCOCC5)c(CN(C)C)c4)c(F)nc3N)cc2c1F` [I-535, 6-(2-amino-5-(3-((dimethylamino)methyl)-4-(tetrahydro-2H-pyran-4-yl)phenyl)-6-fluoropyridin-3-yl)-4,8-difluoro-3-methylisoquinolin-1(2H)-one], with 11 to 100 nM; and `COc1ccc(-c2cc(-c3ccc4c(c3)CCNC4=O)c(N)nc2F)cc1CO` [I-536, 6-(2-amino-6-fluoro-5-(3-(hydroxymethyl)-4-methoxyphenyl)pyridin-3-yl)-3,4-dihydroisoquinolin-1(2H)-one], with 11 to 100 nM. As to `COc1c[nH]c(=O)c2ccc(-c3cc(-c4ccc(N5CCN(C(C)C)CC5)cc4)c(F)nc3N)cc12` [I-537], the IC50 was 0.1 to 10 nM. On to `Cc1[nH]c(=O)c2ccc(-c3cc(-c4ccc(N5CCN(C(C)C)CC5)cc4)c(F)nc3N)cc2c1Cl` [I-538, 6-(2-amino-6-fluoro-5-(4-(4-isopropylpiperazin-1-yl)phenyl)pyridin-3-yl)-4-chloro-3-methylisoquinolin-1(2H)-one], for which the concentration for half-maximal inhibition (IC50) was in the range of 0.1 to 10 nM. Next, `CN1CCOC2(C1)CN(c1ccc(-c3cc(-c4cc5c(cc4F)C(=O)NCC5)c(N)nc3F)cc1)C2` [I-539, 6-(2-amino-6-fluoro-5-(4-(8-methyl-5-oxa-2,8-diazaspiro[3.5]nonan-2-yl)phenyl)pyridin-3-yl)-7-fluoro-3,4-dihydroisoquinolin-1(2H)-one]: 0.1 to 10 nM. Next, `COC1CCN(Cc2cc(-c3cc(-c4ccc5c(c4)CCNC5=O)c(N)nc3F)ccc2C2CCOCC2)CC1` [I-540, 6-(2-amino-6-fluoro-5-(3-((4-methoxypiperidin-1-yl)methyl)-4-(tetrahydro-2H-pyran-4-yl)phenyl)pyridin-3-yl)-3,4-dihydroisoquinolin-1(2H)-one]: 11 to 100 nM; `COC1CCN(Cc2cc(-c3cc(-c4cc5c(cc4F)C(=O)NCC5)c(N)nc3F)ccc2C2CCOCC2)CC1` [I-541, 6-(2-amino-6-fluoro-5-(3-((4-methoxypiperidin-1-yl)methyl)-4-(tetrahydro-2H-pyran-4-yl)phenyl)pyridin-3-yl)-7-fluoro-3,4-dihydroisoquinolin-1(2H)-one]: 11 to 100 nM; `COC1CCN(Cc2cc(-c3cc(-c4ccc5c(c4)CCNC5=O)c(N)nc3F)ccc2N2CCOCC2)C1` (stereo not shown) [I-542, 6-(2-amino-6-fluoro-5-(3-((3-methoxypyrrolidin-1-yl)methyl)-4-morpholinophenyl)pyridin-3-yl)-3,4-dihydroisoquinolin-1(2H)-one]: 11 to 100 nM.

Take `Nc1nc(F)c(-c2ccc(N3CCN(CCCC(F)F)CC3)cc2)cc1-c1ccc2c(=O)[nH]cc(F)c2c1` [I-544, 6-(2-amino-5-(4-(4-(4,4-difluorobutyl)piperazin-1-yl)phenyl)-6-fluoropyridin-3-yl)-4-fluoroisoquinolin-1(2H)-one]: the IC50 was 0.1 to 10 nM. Turning to `Cc1c[nH]c(=O)c2ccc(-c3cc(-c4ccc(N5CCN(C6CCC6)CC5)cc4)c(F)nc3N)cc12` [I-545, 6-(2-amino-5-(4-(4-cyclobutylpiperazin-1-yl)phenyl)-6-fluoropyridin-3-yl)-4-methylisoquinolin-1(2H)-one], the IC50 fell in the range of 0.1 to 10 nM. As to `Nc1nc(F)c(-c2ccc(N3CCN(C4CCC4)CC3)cc2)cc1-c1ccc2c(=O)[nH]cc(F)c2c1` [I-546, 6-(2-amino-5-(4-(4-cyclobutylpiperazin-1-yl)phenyl)-6-fluoropyridin-3-yl)-4-fluoroisoquinolin-1(2H)-one], the IC50 was 0.1 to 10 nM.
